According to patent US10507193B2, “Ultra low dose doxepin and methods of using the same to treat sleep disorders” (Pernix Sleep, Inc., priority 2006, dated 2019):

Columns and labels:
Type in all cases: in vivo, human
[1] = system: patient suffering from transient or short term insomnia; assay: Patient with transient or short term insomnia prescribed ultra low dose doxepin prior to bedtime
From the text: A patient suffers from transient or short term insomnia. The patient is otherwise healthy with normal affect with no depression, anxiety or substance overuse. The patient is prescribed doxepin in a daily dosage of 0.4 milligrams, prior to bedtime. […] A patient suffers from transient or short term insomnia. The patient is otherwise healthy with normal affect with no depression, anxiety or substance overuse. The patient is prescribed doxepin in a daily dosage of 0.08 milligrams, prior to bedtime. […] A patient suffers from transient or short term insomnia. The patient is otherwise healthy with normal affect with no depression, anxiety or substance overuse. The patient is prescribed doxepin in a daily dosage of 0.009 milligrams, prior to bedtime. […] A patient suffers from transient or short term insomnia. The patient is otherwise healthy with normal affect with no depression, anxiety or substance overuse. The patient is prescribed doxepin in a daily dosage of 0.0005 milligrams prior to bedtime. […] A patient suffers from transient or short term insomnia. The patient also suffers from depression. The patient is prescribed doxepin in a daily dosage of 0.3 milligrams, prior to bedtime. […] A patient suffers from transient or short term insomnia. The patient also suffers from depression. The patient is prescribed doxepin in a daily dosage of 0.1 milligrams, prior to bedtime. […] A patient suffers from transient or short term insomnia. The patient also suffers from depression. The patient is prescribed doxepin in a daily dosage of 0.006 milligrams, prior to bedtime. […] A patient suffers from transient or short term insomnia. The patient is otherwise healthy with normal affect with no depression, anxiety or substance overuse. The patient is prescribed doxepin in a daily dosage of 0.008 milligrams, prior to bedtime. […] A patient suffers from transient or short term insomnia. The patient also suffers from depression. The patient is prescribed doxepin in a daily dosage of 0.001 milligrams, prior to bedtime. […] A patient suffers from transient or short term insomnia. The patient also suffers from depression. The patient is prescribed doxepin in a daily dosage of 0.0003 milligrams prior to bedtime.

[2] = system: patient suffering from a sleep disorder; assay: Patient with a sleep disorder prescribed ultra low dose doxepin, salt or prodrug prior to bedtime; details: daily dosage 0.1 milligram prior to bedtime
From the text: A patient suffers from a sleep disorder. The patient is prescribed doxepin in a daily dosage of 0.1 milligram prior to bedtime. […] A patient suffers from a sleep disorder. The patient is prescribed a pharmaceutically acceptable salt of doxepin in a daily dosage of 0.3 milligrams prior to bedtime. […] A patient suffers from a sleep disorder. The patient is prescribed a pharmaceutically acceptable salt of doxepin in a daily dosage of 0.009 milligrams prior to bedtime. […] A patient suffers from a sleep disorder. The patient is prescribed a pharmaceutically acceptable salt of doxepin in a daily dosage of 0.006 milligrams prior to bedtime. […] A patient suffers from a sleep disorder. The patient is prescribed a pharmaceutically acceptable salt of doxepin in a daily dosage of 0.0007 milligrams prior to bedtime. […] A patient suffers from a sleep disorder. The patient is prescribed a prodrug of doxepin in a daily dosage of 0.1 milligrams prior to bedtime. […] A patient suffers from a sleep disorder. The patient is prescribed a prodrug of doxepin in a daily dosage of 0.0006 milligrams prior to bedtime. […] A patient suffers from a sleep disorder. The patient is prescribed a prodrug of doxepin in a daily dosage of 0.05 milligrams prior to bedtime. […] A patient suffers from a sleep disorder. The patient is prescribed a prodrug of doxepin in a daily dosage of 0.004 milligrams prior to bedtime. […]

[3] = system: patient suffering from chronic insomnia; assay: Patient with chronic insomnia prescribed ultra low dose doxepin prior to bedtime
From the text: A patient suffers from chronic insomnia. The patient is otherwise healthy with normal affect with no depression, anxiety or substance overuse. The patient is prescribed doxepin in a daily dosage of 0.4 milligrams prior to bedtime. […] A patient suffers from chronic insomnia. The patient is otherwise healthy with normal affect with no depression, anxiety or substance overuse. The patient is prescribed doxepin in a daily dosage of 0.2 milligrams prior to bedtime. […] A patient suffers from chronic insomnia. The patient is otherwise healthy with normal affect with no depression, anxiety or substance overuse. The patient is prescribed doxepin in a daily dosage of 0.02 milligrams prior to bedtime. […] A patient suffers from chronic insomnia. The patient is otherwise healthy with normal affect with no depression, anxiety or substance overuse. The patient is prescribed doxepin in a daily dosage of 0.007 milligrams prior to bedtime. […] A patient suffers from chronic insomnia. The patient is otherwise healthy with normal affect with no depression, anxiety or substance overuse. The patient is prescribed doxepin in a daily dosage of 0.009 milligrams prior to bedtime. […] A patient suffers from chronic insomnia. The patient is otherwise healthy with normal affect with no depression, anxiety or substance overuse. The patient is prescribed doxepin in a daily dosage of 0.0002 milligrams prior to bedtime. […] A patient suffers from chronic insomnia. The patient also suffers from depression. The patient is prescribed doxepin in a daily dosage of 0.5 milligram prior to bedtime. […] A patient suffers from chronic insomnia. The patient also suffers from depression. The patient is prescribed doxepin in a daily dosage of 0.03 milligrams prior to bedtime. […] A patient suffers from chronic insomnia. The patient also suffers from depression. The patient is prescribed doxepin in a daily dosage of 0.05 milligrams prior to bedtime. […] A patient suffers from chronic insomnia. The patient also suffers from depression. The patient is prescribed doxepin in a daily dosage of 0.004 milligrams prior to bedtime. […] A patient suffers from chronic insomnia. The patient also suffers from depression. The patient is prescribed doxepin in a daily dosage of 0.0001 milligrams prior to bedtime. […] A patient suffers from chronic insomnia. The patient also suffers from depression. The patient is prescribed doxepin in a daily dosage of 0.0009 milligrams prior to bedtime.

[4] = otherwise healthy, no depression, daily dosage 0.009 milligrams prior to bedtime
[5] = otherwise healthy, no depression, daily dosage 0.4 milligrams prior to bedtime

Measured: relief of insomnia

CN(C)CCC=C1c2ccccc2COc2ccccc21 [doxepin, 11-(3-dimethylaminopropylidene)-6,11-dihydrodibenzo-[b,e]-oxepine]
relieves the insomnia: [1]; otherwise healthy, no depression, daily dosage 0.0005 milligrams prior to bedtime | [1]; otherwise healthy, no depression, daily dosage 0.008 milligrams prior to bedtime | [1]; [4] | [1]; otherwise healthy, no depression, daily dosage 0.08 milligrams prior to bedtime | [1]; [5] | [1]; patient also suffers from depression, daily dosage 0.0003 milligrams prior to bedtime | [1]; patient also suffers from depression, daily dosage 0.001 milligrams prior to bedtime | [1]; patient also suffers from depression, daily dosage 0.006 milligrams prior to bedtime | [1]; patient also suffers from depression, daily dosage 0.1 milligrams prior to bedtime | [1]; patient also suffers from depression, daily dosage 0.3 milligrams prior to bedtime | [2] | [3]; otherwise healthy, no depression, daily dosage 0.0002 milligrams prior to bedtime | [3]; otherwise healthy, no depression, daily dosage 0.007 milligrams prior to bedtime | [3]; [4] | [3]; otherwise healthy, no depression, daily dosage 0.02 milligrams prior to bedtime | [3]; otherwise healthy, no depression, daily dosage 0.2 milligrams prior to bedtime | [3]; [5] | [3]; patient also suffers from depression, daily dosage 0.0001 milligrams prior to bedtime | [3]; patient also suffers from depression, daily dosage 0.0009 milligrams prior to bedtime | [3]; patient also suffers from depression, daily dosage 0.004 milligrams prior to bedtime | [3]; patient also suffers from depression, daily dosage 0.03 milligrams prior to bedtime | [3]; patient also suffers from depression, daily dosage 0.05 milligrams prior to bedtime | [3]; patient also suffers from depression, daily dosage 0.5 milligram prior to bedtime
